Our source for the IC50 values is ChEMBL document CHEMBL1156034, “The first pharmacophore model for potent NF-kappaB inhibitors” (Bioorg Med Chem Lett, 2009).

Structures are written as SMILES. Where a SMILES comes first, the peptide text is derived from it. The star is where a group is joined. Cbz = O=C(OCc1ccccc1)*

This experiment in a line: Inhibition of NF-kappaB activation.
For orientation: IC50 means the concentration that gives 50% inhibition. A low value points to greater potency. In turn, `Clc1ccc(CNc2ncnc3ccccc23)cc1` displayed a half-inhibitory concentration (IC50) of 1.83 µM. In turn, `Oc1ccc2ncnc(NCCc3ccc(Cl)cc3)c2c1` showed an IC50 of 0.313 µM. `O=[N+]([O-])c1ccc2ncnc(NCCc3ccc(Cl)cc3)c2c1` gave an IC50 of 1.52 µM. For `Clc1ccc(CCNc2ncnc3ccc(Cl)cc23)cc1` the value was 0.344 µM. Take `O=[N+]([O-])c1ccc2c(NCCc3ccc(Cl)cc3)ncnc2c1`: the IC50 came to 1.77 µM. Take `Nc1ccc2ncnc(NCCc3ccc(Cl)cc3)c2c1`: the midpoint of inhibition, the IC50, lay at 0.176 µM.

On to `Nc1ccc2c(NCCc3ccc(Cl)cc3)ncnc2c1`, for which the IC50 stood at 2.2 µM. `Clc1ccc(CCNc2ncnc3ccccc23)cc1` gave an IC50 of 0.63 µM. With `Clc1ccc(CCNc2ncnc3ccc(Br)cc23)cc1` the figure was 0.851 µM.

`O=[N+]([O-])c1cc2c(NCCc3ccc(Cl)cc3)ncnc2cc1Cl`: the IC50 stood at 9.06 µM.

As for `O=C1c2ccc(O)cc2C(=O)N1c1c(Br)cccc1Br`, inhibition was half-maximal at 0.43 µM (IC50).

Turning to `Cc1ccc(S(=O)(=O)Nc2cccc3cccnc23)c([N+](=O)[O-])c1`, half-maximal inhibition (IC50) required 2.1 µM.

The compound `COc1cc(NS(=O)(=O)c2ccc(C)cc2N)c2ncccc2c1` returned an IC50 of 1 µM.

For the compound `Nc1ccccc1S(=O)(=O)Nc1cccc2cccnc12`, the IC50 came out at 2 µM. Compound `Cc1ccc2cccc(NS(=O)(=O)c3ccccc3[N+](=O)[O-])c2n1` came in with an IC50 of 3.8 µM.

The compound `Cc1ccc2cccc(NS(=O)(=O)c3ccc(Cl)s3)c2n1` displayed an IC50 of 1 µM.

`Cc1ccc2cccc(NS(=O)(=O)c3ccc(Br)s3)c2n1`: the IC50 was 1.4 µM. Consider `O=S(=O)(Nc1cccc2cccnc12)c1cccs1`, for which the IC50 worked out at 3.6 µM. Take `O=S(=O)(Nc1cccc2cccnc12)c1ccc(Cl)s1`: the IC50 stood at 1.3 µM.

Turning to `Cc1ccc2cccc(NS(=O)(=O)c3ccccc3N)c2n1`, the midpoint of inhibition, the IC50, lay at 2.8 µM. Compound `Cc1ccc2cccc(NS(=O)(=O)c3ccc(C(F)(F)F)cc3[N+](=O)[O-])c2n1` came in with an IC50 of 1.1 µM. `COc1cc(NS(=O)(=O)c2ccc(C)cc2[N+](=O)[O-])c2ncccc2c1`: the IC50 was found to be 2.1 µM. The compound `COc1cnc2c3c(ccc2c1)-c1ccccc1S(=O)(=O)N3` showed an IC50 of 2.5 µM. Compound `O=[N+]([O-])c1ccccc1S(=O)(=O)Nc1cccc2cccnc12` displayed an IC50 of 3.2 µM. For the compound `O=S1(=O)Nc2c(ccc3cccnc23)-c2cc(F)ccc21`, it took 1.7 µM to reach half-maximal inhibition (IC50). On to `COc1ccc(S(=O)(=O)Nc2cccc3ccc(C)nc23)c([N+](=O)[O-])c1`, for which the midpoint of inhibition, the IC50, lay at 1 µM. As to `Cc1ccc2c(c1)-c1ccc3cccnc3c1NS2(=O)=O`, the IC50 turned out to be 0.6 µM.

Regarding `O=S1(=O)Nc2c(ccc3cccnc23)-c2cc(C(F)(F)F)ccc21`, half-maximal inhibition (IC50) required 1 µM. For `COc1cc2cccnc2c2c1-c1cc(C)ccc1S(=O)(=O)N2` the value was 1.2 µM; for `COc1ccc2c(c1)-c1ccc3ccc(C)nc3c1NS2(=O)=O`, 2.5 µM; for `Cc1ccc2ccc3c(c2n1)NS(=O)(=O)c1ccc(C(F)(F)F)cc1-3`, 1.2 µM.

For `COc1cc2ccc(C)nc2c2c1-c1cc(C)ccc1S(=O)(=O)N2`, the IC50 stood at 0.9 µM.

Turning to `CC(C)c1cccc(C(C)C)c1N1C(=O)c2ccc(O)cc2C1=O`, the IC50 came out at 0.53 µM. For `O=S(=O)(Nc1cccc2cccnc12)c1ccc(Br)s1` the value was 1.1 µM; for `Cc1ccc2cccc(NS(=O)(=O)c3cccc([N+](=O)[O-])c3)c2n1`, 0.9 µM; for `Cc1ccc2ccc3c(c2n1)NS(=O)(=O)c1ccc(O)cc1-3`, 10 µM. Turning to `COc1ccc2c(c1)-c1ccc3cccnc3c1NS2(=O)=O`, the midpoint of inhibition, the IC50, lay at 1 µM. With `O=[N+]([O-])c1cc(C(F)(F)F)ccc1S(=O)(=O)Nc1cccc2cccnc12`, 3.7 µM corresponded to half-maximal inhibition (IC50).

For the compound `c1ccc(CCCNc2ncnc3ccccc23)cc1`, the IC50 worked out at 2.38 µM. The compound `O=S1(=O)Nc2c(ccc3cccnc23)-c2ccccc21` came in with an IC50 of 1 µM. With `Cc1ccc([N+](=O)[O-])cc1S(=O)(=O)Nc1cccc2cccnc12` the figure was 1.6 µM. Regarding `O=S1(=O)Nc2c(ccc3cccnc23)-c2cc(Cl)ccc21`, the IC50 was determined as 1.1 µM. In turn, `Cc1ccc2ncnc(NCCc3ccc(Cl)cc3)c2c1` returned an IC50 of 0.73 µM. `Nc1ccc2ncnc(NCCc3ccc(Oc4ccccc4)cc3)c2c1`: the IC50 stood at 0.011 µM.

`O=[N+]([O-])c1ccc(S(=O)(=O)Nc2cccc3cccnc23)cc1` registered an IC50 of 1.5 µM.

`Nc1ccc2ncnc(NCCc3cccnc3)c2c1` displayed an IC50 of 8.27 µM. The compound `Nc1ccc2ncnc(NCCc3ccc(O)cc3)c2c1` yielded an IC50 of 3.65 µM. Consider `C#CCOc1ccc(CCNc2ncnc3ccc(N)cc23)cc1`, for which the IC50 came to 0.04 µM.

In turn, `CCOc1ccc(CCNc2ncnc3ccc(N)cc23)cc1` returned an IC50 of 0.021 µM. With `C=CCOc1ccc(CCNc2ncnc3ccc(N)cc23)cc1` the figure was 0.012 µM. `CCCOc1ccc(CCNc2ncnc3ccc(N)cc23)cc1`: half-maximal inhibition (IC50) was put at 0.02 µM. Consider `CC(C)Oc1ccc(CCNc2ncnc3ccc(N)cc23)cc1`, for which the IC50 amounted to 0.04 µM. `Nc1ccc2ncnc(NCCN3CCOCC3)c2c1`: the IC50 is above 10 µM. Consider `Nc1ccc2ncnc(NCCC3CCCCC3)c2c1`, for which the IC50 came to 0.685 µM. As for `Cc1ccc(CCNc2ncnc3ccc(N)cc23)cc1`, the IC50 was 0.21 µM.

Regarding `Clc1ccc(Nc2ncnc3ccccc23)cc1`, the IC50 was above 10 µM. Regarding `CCCCCOc1ccc(CCNc2ncnc3ccc(N)cc23)cc1`, half-maximal inhibition (IC50) was put at 0.002 µM. As to `COc1ccccc1CCNc1ncnc2ccc(N)cc12`, the IC50 worked out at 0.155 µM. For `Nc1ccc2ncnc(NCCc3ccc(Br)cc3)c2c1` the value was 0.207 µM; for `Clc1ccc(CCNc2nccc3ccccc23)cc1`, above 10 µM. Compound `CCCCCCOc1ccc(CCNc2ncnc3ccc(N)cc23)cc1` returned an IC50 of 0.004 µM. For `Nc1ccc2ncnc(NCCc3ccc(OCc4ccccn4)cc3)c2c1` [listing 1 of 2 here] the value was 0.012 µM; for `Nc1ccc2ncnc(NCCc3cccc(Cl)c3)c2c1`, 0.389 µM. `Nc1ccc2ncnc(NCCc3ccc(F)cc3)c2c1` had an IC50 of 0.574 µM. Compound `COc1ccc(CCNc2ncnc3ccc(N)cc23)cc1` returned an IC50 of 0.09 µM.

`CC(=O)Nc1ccc2ncnc(NCCc3ccc(Cl)cc3)c2c1` yielded an IC50 of 4.56 µM. `Nc1ccc2ncnc(NCCN3CCCCC3)c2c1` gave an IC50 above 10 µM.

On to `NC(=O)c1ccc(CCNc2ncnc3ccc(N)cc23)cc1`, for which the half-maximal inhibitory concentration (IC50) was 7.33 µM. For `Clc1ccc(CCNc2ccnc3ccccc23)cc1`, the IC50 amounted to 1.39 µM. For `Nc1ccc2ncnc(NCCc3ccc(OCc4ccccn4)cc3)c2c1` [listing 2 of 2 here] the value was 0.014 µM; for `Clc1ccc(CCCNc2ncnc3ccccc23)cc1`, 1.4 µM; for `COc1cccc(CCNc2ncnc3ccc(N)cc23)c1`, 0.21 µM. As for `COC(=O)C1[C@@H](O)[C@@]2(O)c3c(cc4c(c3OC)OCO4)O[C@@]2(c2ccc(OC)cc2)[C@@H]1c1ccccc1` (some centres not stated), the IC50 is 0.243 µM. `Nc1ccc2ncnc(NCCc3ccc(OCc4ccc5ccccc5n4)cc3)c2c1` displayed an IC50 of 0.093 µM. For `CC(=O)Nc1ccc(CCNc2ncnc3ccc(N)cc23)cc1` the value was 5.98 µM; for `Clc1ccc(CCNc2ncnc3ccc(Oc4ccccc4)cc23)cc1`, 7.34 µM; for `Nc1ccc2ncnc(NCCc3ccccc3)c2c1`, 0.311 µM. `Nc1cc2c(NCCc3ccc(Cl)cc3)ncnc2cc1Cl` came in with an IC50 of 0.429 µM. For `Nc1ccc2ncnc(NCCc3ccc(S(N)(=O)=O)cc3)c2c1` the value was above 10 µM; for `Clc1ccc(CCNc2nncc3ccccc23)cc1`, above 10 µM. On to `Nc1ccc2ncnc(NCCN3CCCC3)c2c1`, for which the IC50 is 3.69 µM. For `CCCCOc1ccc(CCNc2ncnc3ccc(N)cc23)cc1` the value was 0.011 µM.

Regarding `Nc1ccc2ncnc(NCCc3ccccc3Cl)c2c1`, half-maximal inhibition (IC50) required 0.254 µM. Regarding `CN(C)C(=O)c1ccc(CCNc2ncnc3ccc(N)cc23)cc1`, 2.59 µM corresponded to half-maximal inhibition (IC50). Compound `COC(=O)C1[C@@H](O)[C@@]2(O)c3c(OC)cc(OC)cc3O[C@@]2(c2ccc3c(c2)OCO3)[C@@H]1c1ccccc1` (some centres not stated) came in with an IC50 of 0.319 µM.

With `COC(=O)C1[C@@H](O)[C@@]2(O)c3c(OC)cc(OC)cc3O[C@@]2(c2ccc(OC)cc2)[C@@H]1c1ccccc1` (some centres not stated), the concentration for half-maximal inhibition (IC50) came out at 0.197 µM. Compound `Cc1csc2ncnc(NC3Cc4ccc(C(=O)N5CCOCC5)cc4C3)c12` (configuration not stated) displayed an IC50 of 0.038 µM. As for `CC(C)c1cccc(C(C)C)c1N1C(=O)c2cccc(O)c2C1=O`, the IC50 came to 4.95 µM. `CC(C)c1cccc(C(C)C)c1N1C(=O)c2ccc(N)cc2C1=O` displayed an IC50 of 29.5 µM. Consider `COc1ccc([C@@]23Oc4cc(OC)cc(OC)c4[C@]2(O)[C@H](O)[C@H](C(N)=O)[C@H]3c2ccccc2)cc1` [DIDESMETHYLROCAGLAMIDE], for which the 50% inhibitory concentration (IC50) is 0.044 µM. For the compound `CC(C)C[C@@H](C=O)NC(=O)[C@H](CC(C)C)NC(=O)[C@H](CC(C)C)NC(=O)OCc1ccccc1` [MG-132] (Cbz-Leu-Leu-Leu-aldehyde), the IC50 came out at 0.715 µM.

For `COc1ccc([C@@]23Oc4cc(OC)cc(OC)c4[C@]2(O)[C@H](O)C[C@H]3c2ccccc2)cc1` [ROCAGLAOL], the IC50 came to 0.499 µM.
